Results on five molecules are retold here after patent US20100222269A1, “IMPROVED DERIVATIVES OF AMYLIN” (priority 2007, published 2010).

Starred links: 1 amine or outer side, 2 acyl side, 3 side chain; linkers in the order of their positions; H or OH if unused. Positions of bridges follow the written chain, without caps; N, C: chain ends. Residues, ends and D or L forms follow the SMILES beside them. Groups on a side chain read outwards from the residue. *: point of attachment. C20 diacid = O=C(O)CCCCCCCCCCCCCCCCCCC(=O)*; C18 diacid = O=C(O)CCCCCCCCCCCCCCCCC(=O)*; γGlu = O=C(O)[C@H](CCC(=O)[*:2])N[*:1]; AEEA = NCCOCCOCC(=O)O

In this assay the target is T1, Amylin 3(a) receptor (human calcitonin receptor (CTa) with RAMP-3) (Homo sapiens, UniProt O60896+P30988).
T1 construct: expressed in transfected cells; host or cells: BHK570 (baby hamster kidney) cells, stably transfected, with CRE-luciferase reporter
T1 sequence (O60896 24-148): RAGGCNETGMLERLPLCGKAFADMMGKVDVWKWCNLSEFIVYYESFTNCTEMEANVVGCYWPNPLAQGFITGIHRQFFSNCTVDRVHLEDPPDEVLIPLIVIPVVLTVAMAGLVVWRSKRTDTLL
T1 sequence (P30988 25-474): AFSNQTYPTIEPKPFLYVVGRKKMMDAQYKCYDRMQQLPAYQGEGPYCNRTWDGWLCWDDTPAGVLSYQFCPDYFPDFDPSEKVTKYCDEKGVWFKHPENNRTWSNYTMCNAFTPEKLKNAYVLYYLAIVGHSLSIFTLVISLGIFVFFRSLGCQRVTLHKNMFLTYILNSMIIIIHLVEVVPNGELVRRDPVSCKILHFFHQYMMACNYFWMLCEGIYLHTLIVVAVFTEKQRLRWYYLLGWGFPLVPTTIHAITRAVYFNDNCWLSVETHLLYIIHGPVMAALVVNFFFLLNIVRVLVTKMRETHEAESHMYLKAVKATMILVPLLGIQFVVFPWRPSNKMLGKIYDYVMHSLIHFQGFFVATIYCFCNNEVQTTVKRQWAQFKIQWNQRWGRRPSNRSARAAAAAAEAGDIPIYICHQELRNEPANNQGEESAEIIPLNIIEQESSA
Kind of assay: Amylin luciferase assay (CRE-luciferase reporter in BHK Amylin 3(a)//CRE-luc cells). The format is cell-based. Particulars: BHK570 cells with human calcitonin receptor (CTa), RAMP-3 and CRE-luciferase reporter; 4 hours incubation; read-out: Potency luciferase assay. The source says:
It has previously been published (Poyner D R et al 2002, Pharmacological Reviews 54(2) 233-246) that activation of Amylin receptors (coexpression of Calcitonin receptor and receptor activity modifying peptides RAMPs) by Amylin leads to an increase in the intracellular concentration of cAMP. Consequently, transcription is activated at promotors containing multiple copies of the cAMP response element (CRE). It is thus possible to measure Amylin activity by use of a CRE luciferase reporter gene introduced into BHK cells also expressing an Amylin receptor.
2. Construction of an Amylin 3(a)/CRE-luc Cell Line
A BHK570 cell line stably transfected with the human calcitonin receptor (CTa) and a CRE-responsive luciferase reportergene. The cell line was further transfected with RAMP-3, using standard methods. This turns the Calcitonin receptor into an Amylin 3(a) receptor. Methotrexate, Neomycin, and Hygromycin are selection markers for luciferase, the Calcitonin receptor, and RAMP-3, respectively.
3. Amylin Luciferase Assay
To perform activity assays, BHK Amylin 3(a)//CRE-luc cells were seeded in white 96 well culture plates at a density of about 20.000 cells/well. The cells were in 100 μl growth medium (DMEM with 10% FBS, 1% Pen/Strep, 1 mM Na-pyruvate, 250 nM Methotrexate, 500 μg/ml Neomycin, and 400 μg/ml Hygromycin). After incubation overnight at 37° C. and 5% CO2, the growth medium was replaced by 50 μl/well assay medium (DMEM (without phenol red), Glumamax™, 10% FBS, and 10 mM Hepes, pH 7,4). Further, 50 μl/well of standard or sample in assay buffer were added. After 4 hours incubation at 37° C. and 5% CO2, the assay medium with standard or sample were removed and replaced by 100 μl/well PBS. Further, 100 μl/well LucLite™ was added. The plates were sealed and incubated at room temperature for 30 minutes. Finally, luminescence was measured on a TopCounter (Packard) in SPC (single photon counting) mode.
Take `CC[C@H](C)[C@H](NC(=O)[C@@H]1CCCN1C(=O)CNC(=O)[C@H](Cc1ccccc1)NC(=O)[C@H](CC(N)=O)NC(=O)[C@H](CC(N)=O)NC(=O)[C@H](CO)NC(=O)[C@H](CO)NC(=O)[C@H](Cc1c[nH]cn1)NC(=O)[C@@H](NC(=O)[C@H](CC(C)C)NC(=O)[C@H](Cc1ccccc1)NC(=O)[C@H](CC(N)=O)NC(=O)[C@H](C)NC(=O)[C@H](CC(C)C)NC(=O)[C@H](CCCNC(=N)N)NC(=O)[C@H](CCC(N)=O)NC(=O)[C@@H](NC(=O)[C@H](C)NC(=O)[C@@H]1CSSC[C@H](NC(=O)[C@@H](N)CCCCN)C(=O)N[C@@H](CCCCNC(=O)CCCCCCCCCCCCCCCCCCC(=O)O)C(=O)N[C@@H]([C@@H](C)O)C(=O)N[C@@H](C)C(=O)N[C@@H]([C@@H](C)O)C(=O)N1)[C@@H](C)O)C(C)C)C(=O)N[C@@H](CC(C)C)C(=O)N1CCC[C@H]1C(=O)N1CCC[C@H]1C(=O)N[C@H](C(=O)N[C@@H](CC(N)=O)C(=O)N[C@H](C(=O)NCC(=O)N[C@@H](CO)C(=O)N[C@@H](CC(N)=O)C(=O)N[C@H](C(=O)N[C@@H](Cc1ccc(O)cc1)C(N)=O)[C@@H](C)O)C(C)C)[C@@H](C)O` [Example 14, N-epsilon3-(19-carboxynonadecanoyl)-[Lys3]-pramlintide (1-37)] (H-KCK(C20 diacid)TATCATQRLANFLVHSSNNFGPILPPTNVGSNTY-NH2; disulfide 2-7; N-terminus assumed): the EC50 came to 50 pM.
Turning to `CC(C)C[C@H](NC(=O)[C@H](CC(N)=O)NC(=O)[C@H](CC(N)=O)NC(=O)[C@H](CO)NC(=O)[C@H](CO)NC(=O)[C@H](CCCNC(=N)N)NC(=O)[C@@H](NC(=O)[C@H](CC(C)C)NC(=O)[C@H](Cc1ccccc1)NC(=O)[C@H](CC(N)=O)NC(=O)[C@H](C)NC(=O)[C@H](CC(C)C)NC(=O)[C@H](CCCNC(=N)N)NC(=O)[C@H](CCC(N)=O)NC(=O)[C@@H](NC(=O)[C@H](C)NC(=O)[C@@H]1CSSC[C@H](NC(=O)CC[C@H](NC(=O)CCCCCCCCCCCCCCCCC(=O)O)C(=O)O)C(=O)N[C@@H](CC(N)=O)C(=O)N[C@@H]([C@@H](C)O)C(=O)N[C@@H](C)C(=O)N[C@@H]([C@@H](C)O)C(=O)N1)[C@@H](C)O)C(C)C)C(=O)NCC(=O)N1CCC[C@H]1C(=O)N[C@H](C(=O)N[C@@H](CC(C)C)C(=O)N1CCC[C@H]1C(=O)N1CCC[C@H]1C(=O)N[C@H](C(=O)N[C@@H](CC(N)=O)C(=O)N[C@H](C(=O)NCC(=O)N[C@@H](CO)C(=O)N[C@@H](CC(N)=O)C(=O)N[C@H](C(=O)N[C@@H](Cc1ccc(O)cc1)C(N)=O)[C@@H](C)O)C(C)C)[C@@H](C)O)C(C)C` [Example 16, N-alpha-[(S)-4-carboxy-4-(17-carboxyheptadecanoylamino)butyryl]-[Arg18,Leu23,Val26]-pramlintide (2-37)], the EC50 was 30 pM.
`CC[C@H](C)[C@H](NC(=O)[C@@H]1CCCN1C(=O)CNC(=O)[C@H](Cc1ccccc1)NC(=O)[C@H](CC(N)=O)NC(=O)[C@H](CC(N)=O)NC(=O)[C@H](CO)NC(=O)[C@H](CO)NC(=O)[C@H](CCCNC(=N)N)NC(=O)[C@H](C)NC(=O)[C@H](CC(C)C)NC(=O)[C@H](Cc1ccccc1)NC(=O)[C@H](CC(N)=O)NC(=O)[C@H](C)NC(=O)[C@H](CC(C)C)NC(=O)[C@H](CCCNC(=N)N)NC(=O)[C@H](CCC(N)=O)NC(=O)[C@@H](NC(=O)[C@H](C)NC(=O)[C@@H]1CSSC[C@H](NC(=O)[C@@H](N)CCCCNC(=O)CC[C@H](NC(=O)CCCCCCCCCCCCCCCCC(=O)O)C(=O)O)C(=O)NCC(=O)N[C@@H]([C@@H](C)O)C(=O)N[C@@H](C)C(=O)N[C@@H]([C@@H](C)O)C(=O)N1)[C@@H](C)O)C(=O)N[C@@H](CC(C)C)C(=O)N[C@@H](CO)C(=O)N1CCC[C@H]1C(=O)N[C@H](C(=O)N[C@@H](CC(N)=O)C(=O)N[C@H](C(=O)NCC(=O)N[C@@H](CO)C(=O)N[C@@H](CC(N)=O)C(=O)N[C@H](C(=O)N[C@@H](Cc1ccc(O)cc1)C(N)=O)[C@@H](C)O)C(C)C)[C@@H](C)O` [Example 23, N-epsilon1-[(S)-4-carboxy-4-(17-carboxyheptadecanoylamino)butyryl]-[Gly3,Ala17,Arg18,Ser28]-pramlintide (1-37)] (H-K([γGlu-C18 diacid])CGTATCATQRLANFLARSSNNFGPILSPTNVGSNTY-NH2; disulfide 2-7): the EC50 worked out at 70 pM.
Under `CC[C@H](C)[C@H](NC(=O)[C@@H]1CCCN1C(=O)CNC(=O)[C@H](Cc1ccccc1)NC(=O)[C@H](CC(N)=O)NC(=O)[C@H](CC(N)=O)NC(=O)[C@H](CO)NC(=O)[C@H](CO)NC(=O)[C@H](Cc1c[nH]cn1)NC(=O)[C@@H](NC(=O)[C@H](CC(C)C)NC(=O)[C@H](Cc1ccccc1)NC(=O)[C@H](CC(N)=O)NC(=O)[C@H](C)NC(=O)[C@H](CC(C)C)NC(=O)[C@H](CCCNC(=N)N)NC(=O)[C@H](CCC(N)=O)NC(=O)[C@@H](NC(=O)[C@H](C)NC(=O)[C@@H]1CSSC[C@H](NC(=O)[C@H](CCC(=O)O)NC(=O)[C@H](CCCNC(=N)N)NC(=O)[C@H](CCC(=O)O)NC(=O)[C@H](CCC(=O)O)NC(=O)CCCCCCCCCCCCCCCCCCC(=O)O)C(=O)N[C@@H](CC(N)=O)C(=O)N[C@@H]([C@@H](C)O)C(=O)N[C@@H](C)C(=O)N[C@@H]([C@@H](C)O)C(=O)N1)[C@@H](C)O)C(C)C)C(=O)N[C@@H](CC(C)C)C(=O)N1CCC[C@H]1C(=O)N1CCC[C@H]1C(=O)N[C@H](C(=O)N[C@@H](CC(N)=O)C(=O)N[C@H](C(=O)NCC(=O)N[C@@H](CO)C(=O)N[C@@H](CC(N)=O)C(=O)N[C@H](C(=O)N[C@@H](Cc1ccc(O)cc1)C(N)=O)[C@@H](C)O)C(C)C)[C@@H](C)O` [Example 25, N-alpha-(19-carboxynonadecanoyl)-Glu-Glu-Arg-[Glu1]-pramlintide (1-37)] ({C20 diacid}-EERECNTATCATQRLANFLVHSSNNFGPILPPTNVGSNTY-NH2; disulfide 5-10; C-terminus assumed) stands 80 pM; under `CC[C@H](C)[C@H](NC(=O)[C@H](CCCCNC(=O)COCCOCCNC(=O)COCCOCCNC(=O)CC[C@H](NC(=O)CC[C@H](NC(=O)CC[C@H](NC(=O)CC[C@H](NC(=O)CCCCCCCCCCCCCCCCC(=O)O)C(=O)O)C(=O)O)C(=O)O)C(=O)O)NC(=O)CNC(=O)[C@H](Cc1ccccc1)NC(=O)[C@H](CC(N)=O)NC(=O)[C@H](CC(N)=O)NC(=O)[C@H](CO)NC(=O)[C@H](CO)NC(=O)[C@H](Cc1c[nH]cn1)NC(=O)[C@@H](NC(=O)[C@H](CC(C)C)NC(=O)[C@H](Cc1ccccc1)NC(=O)[C@H](CC(N)=O)NC(=O)[C@H](C)NC(=O)[C@H](CC(C)C)NC(=O)[C@H](CCCNC(=N)N)NC(=O)[C@H](CCC(N)=O)NC(=O)[C@@H](NC(=O)[C@H](C)NC(=O)[C@@H]1CSSC[C@H](NC(=O)[C@@H](N)CCCCN)C(=O)N[C@@H](CC(N)=O)C(=O)N[C@@H]([C@@H](C)O)C(=O)N[C@@H](C)C(=O)N[C@@H]([C@@H](C)O)C(=O)N1)[C@@H](C)O)C(C)C)C(=O)N[C@@H](CC(C)C)C(=O)N1CCC[C@H]1C(=O)N1CCC[C@H]1C(=O)N[C@H](C(=O)N[C@@H](CC(N)=O)C(=O)N[C@H](C(=O)NCC(=O)N[C@@H](CO)C(=O)N[C@@H](CC(N)=O)C(=O)N[C@H](C(=O)N[C@@H](Cc1ccc(O)cc1)C(N)=O)[C@@H](C)O)C(C)C)[C@@H](C)O` [Example 26, N-epsilon25-[2-(2-{2-[2-(2-{2-[(S)-4-carboxy-4-((S)-4-carboxy-4-{(S)-4-carboxy-4-[(S)-4-carboxy-4-(17-carboxyheptadecanoylamino)butyrylamino]butyrylamino}butyrylamino)butyrylamino]ethoxy}ethoxy)acetylamino]ethoxy}ethoxy)acetyl]-[Lys25]-pramlintide (1-37)] (H-KCNTATCATQRLANFLVHSSNNFGK([AEEA-AEEA-γGlu-γGlu-γGlu-γGlu-C18 diacid])ILPPTNVGSNTY-NH2; disulfide 2-7; N-terminus and C-terminus assumed), 300 pM.
